Source: patent publication US11260053B2, “Bile acid recycling inhibitors and satiogens for treatment of diabetes, obesity, and inflammatory gastrointestinal conditions” (Satiogen Pharmaceuticals, Inc., priority 2010, dated 2022)
Like-named read-outs stand apart in the source and are kept apart here.

How the values were obtained:
male db/db mice [1] = experiment: In vivo assay for reduction in blood glucose levels (Example 7B); details: for reduction in plasma glucose from baseline: after 6 hours, oral, male db/db mice
Method: Male db/db mice 8-9 weeks (approx 40 g) were fasted for 2 h. […] Blood sample (˜1 μl from tail for glucose level testing) was taken at t=−24 h, 0, 1, 3, 4, 5, 6 h and 24 h after administration.

male db/db mice [2] = experiment: In vivo assay for reduction in blood glucose levels (Example 7A); details: for reduction in plasma glucose from baseline: after 6 hours, oral
Method: Male db/db mice 6-7 weeks (approx 30 g) were fasted for 2 h. A combination of (−)-(3R,5R)-trans-3-butyl-3-ethyl-2,3,4,5-tetrahydro-7,8-dimethoxy-5-phenyl-1,4-benzothiazepine1,1-dioxide (Compound 100A) at doses of 0, 0.1, 1, 10, mg/kg in 10% of DMSO-water and 30 mg/kg sitagliptin (DPP-IV inhibitor) in a mixture of valine-pyrrolidine in water was administered orally to male db/db mice (n=7-10 per group). Blood sample (˜1 μl from tail for glucose level testing) was taken at t=−24 h, 0, 60, 180, 240, 300, 360 min and 24 h after administration.

Sprague Dawley rats [3] = system: Sprague Dawley rats
Method: Using a stainless steel dissolving vessel fitted with a propeller stirrer 1 gram of methyl cellulose is dissolved in 100 mL of purified water and stirred for 15 minutes. 12 syringes connected to gavage tubes are then each filled with 3 mL of the composition.
A 4×4 Latin Square design is used to monitor the effect of the different concentration of taurocholate on the food uptake of overnight-fasted Sprague Dawley rats. Each concentration is tested in triplicate with four rats used per replicate.
The ED50 for inhibition of food intake is obtained by plotting the normalizing the dose response for the anorectic effect of taurocholate to the control data as a log of taurocholate dose vs the percentage of control cumulative intake (FIG. 7).

Sprague Dawley rats [4] = details: 500 mM sodium taurocholate gel, 3 mL per rectum, overnight-fasted rats, 6 hour period
Method: Using a stainless steel dissolving vessel fitted with a propeller stirrer 1 gram of methyl cellulose is dissolved in 100 mL of purified water and stirred for 15 minutes. 5 syringes connected to gavage tubes are then each filled with 3 mL of the composition.
The sodium taurocholate rectal gel described above was rectally administered to 6 conscious overnight-fasted subjects (e.g., Sprague Dawley rats) and the control rectal gel without the sodium taurocholate was rectally administered to 5 conscious overnight-fasted subjects (e.g., Sprague Dawley rats). Each rat was then exposed to pre-weighed food and the cumulative consumption of the food was determined over a 6 hour period by weighing the food after 30 minutes, 60 minutes, 120 minutes, 240 minutes and 360 minutes.

obese diabetic humans = details: rectal 0.66, 2.0, 6.66, 20.0 mmoles in 20 ml 1% carboxymethyl cellulose gel, after 100 mg sitagliptin
Method: Studies were undertaken after an overnight fast following administration (8-10 hours prior to bile salt) of 100 mg sitagliptin, a DPP-4 inhibitor that protects GLP-1 from inactivation by proteolysis. […] The taurocholic acid was administered into the rectum by syringe in a total volume of 20 ml of 1% carboxymethyl cellulose gel. Each dose was administered on a different day with at least three days between doses.

diabetic db/db mice = experiment: Oral ASBTI with DPP-IV inhibitor versus subcutaneous exenatide, blood glucose (Example 9); type: in vivo
GLP-1 = experiment: Plasma GLP-1 levels in normal rats after oral dosing (Example 8); type: in vivo
Method: 12-week-old male HSD rats were fasted for 16 h and given oral dose of 0, 3, 30, 100 mg/kg of the ASBTI 1-[4-[4-[(4R,5R)-3,3-dibutyl-7-(dimethylamino)-2,3,4,5-tetrahydro-4-hydroxy-1,1-dioxido-1-benzothiepin-5-yl]phenoxy]butyl]4-aza-1-azoniabicyclo[2.2.2]octane methane sulfonate (Synthesized by Nanosyn Inc., CA, USA) or metformin (Control, 0, 3, 30, 100, 300 mg/kg) in saline and a dose of 30 mg/kg sitaglipin in a mixture of valine-pyrrolidine in water (n=5 per group). Blood samples in volume of 0.6 ml for each time point were taken from the caudal vein with a heparinized capillary tube 0, 1, 3 and 5 h after the administration of compounds and plasma GLP-1 level were determined. Aprotinin and 10 μl of DPP-IV inhibitor per ml of blood were used for blood sample preservation during 10 min centrifugation and for storage at −70° C. or below. GLP-1 (Active pM) was tested by Millipore ELISA Kits (Millipore Corporation, 290 Concord Road, Billerica, Mass.).

In the case of `N[C@@H](CC(=O)N1CCn2c(nnc2C(F)(F)F)C1)Cc1cc(F)c(F)cc1F` [sitagliptin, (3R)-3-amino-1-[9-(trifluoromethyl)-1,4,7,8-tetrazabicyclo[4.3.0]nona-6,8-dien-4-yl]-4-(2,4,5-trifluorophenyl)butan-1-one, reference compound], the “reduction in plasma glucose from baseline” value (“reduction in plasma glucose” for short) (male db/db mice [1]; dose 0 mg/kg of ASBTI with 30 mg/kg sitagliptin) is reported as 5.5% and the “reduction in plasma glucose” value (male db/db mice [2]; dose 0 mg/kg of ASBTI with 30 mg/kg sitagliptin, male db/db mice) is reported as 5.5%.

For `C[C@H](CCC(=O)NCCS(=O)(=O)O)[C@H]1CC[C@H]2[C@@H]3[C@H](O)C[C@@H]4C[C@H](O)CC[C@]4(C)[C@H]3C[C@H](O)[C@]12C` [taurocholate, taurocholic acid], the cumulative food intake (Sprague Dawley rats [3]; 50, 150, 500 mM taurocholate gels, 3 mL per rectum, overnight-fasted rats) was “dose dependently related to the quantity of taurocholate administered”, the “ED50 for inhibition of food intake” value (Sprague Dawley rats [3]; 24 hour intake) was 7.2 mmol/rat and the “ED50 for inhibition of food intake” value (Sprague Dawley rats [3]; at 1 hour) was 1.6 mmol/rat. For the same compound, the “ED50 for inhibition of food intake” value (Sprague Dawley rats [3]; at 1 hour, 3 mL doses per rectum) was 528 mM, the “time for which differences in food uptake are maintained” value (Sprague Dawley rats [3]; rectal taurocholate gels, rats) was “at least 24 hours” and the “cumulative food intake compared to gel alone” value (Sprague Dawley rats [4]) was “reduced”. The “circulating GLP-1 levels” value (obese diabetic humans) was “increase” and the “circulating PYY levels” value (obese diabetic humans) was “increase”.

With `CCCC[C@]1(CC)CS(=O)(=O)c2cc(OC)c(OC)cc2[C@@H](c2ccccc2)N1` (relative stereo) [Compound 100A, (−)-(3R,5R)-trans-3-butyl-3-ethyl-2,3,4,5-tetrahydro-7,8-dimethoxy-5-phenyl-1,4-benzothiazepine1,1-dioxide] the “change in body weight” value (male db/db mice [2]; 24 h after administration, FIG. 9) was “Weight loss”, the plasma glucose concentrations (male db/db mice [2]; ASBTI alone, male db/db mice, FIG. 1) was “lowers plasma glucose concentrations” and the “reduction in plasma glucose” value (male db/db mice [2]; dose 01 mg/kg (so in the source) with 30 mg/kg sitagliptin, male db/db mice) was 5.6%. For the same compound, the “reduction in plasma glucose” value (male db/db mice [2]; dose 1 mg/kg with 30 mg/kg sitagliptin, male db/db mice) was 15%, the “reduction in plasma glucose” value (male db/db mice [2]; dose 10 mg/kg with 30 mg/kg sitagliptin, male db/db mice) was 42.3% and the “elevated blood glucose levels compared to control mice treated with sitagliptin alone or vehicle” value (male db/db mice [2]; single oral administration in combination with 30 mg/kg sitagliptin, FIG. 1) was “dose-dependent reduction”. For the same compound, the “reduction of plasma glucose levels” value (diabetic db/db mice; 3 hours post-dose, oral 10 mg/kg in combination with 30 mg/kg sitagliptin) was 35%.

With `CCCCC1(CCCC)CS(=O)(=O)c2ccc(N(C)C)cc2[C@@H](c2ccc(OCCCC[N+]34CCN(CC3)CC4)cc2)[C@H]1O.CS(=O)(=O)[O-]` [Compound 100B, 1-[4-[4-[(4R,5R)-3,3-dibutyl-7-(dimethylamino)-2,3,4,5-tetrahydro-4-hydroxy-1,1-dioxido-1-benzothiepin-5-yl]phenoxy]butyl]4-aza-1-azoniabicyclo[2.2.2]octane methane sulfonate salt] the “change in body weight” value (male db/db mice [1]; 24 h after administration, in combination with sitagliptin, FIG. 8) was “Weight loss”, the plasma glucose levels (male db/db mice [1]; ASBTI alone, db/db mice, FIG. 4) was “lowers plasma glucose levels in dose dependent manner” and the “reduction in plasma glucose” value (male db/db mice [1]; dose 3 mg/kg with 30 mg/kg sitagliptin) was 5.6%. The “reduction in plasma glucose” value (male db/db mice [1]; dose 30 mg/kg with 30 mg/kg sitagliptin) was 15%, the “reduction in plasma glucose” value (male db/db mice [1]; dose 100 mg/kg with 30 mg/kg sitagliptin) was 42.3% and the “elevated blood glucose levels compared to control mice treated with sitagliptin alone or vehicle” value (male db/db mice [1]; single oral administration in combination with 30 mg/kg sitagliptin, FIG. 2) was “dose-dependent reduction”. For the same compound, the “blood glucose levels compared with exenatide” value (diabetic db/db mice; 3 hours after dosing, oral, in combination with 30 mg/kg sitagliptin, FIG. 10) was “reduces blood glucose levels more than a single subcutaneous injection of 0.02 mg/kg exenatide”, the “plasma GLP-1 levels” value (GLP-1; ASBTI alone, oral 0, 3, 30, 100 mg/kg, FIG. 6, FIG. 7) was “elevation in GLP-1 levels in a dose-dependent manner” and the “plasma GLP-1 levels” value (GLP-1; ASBTI in combination with 30 mg/kg sitagliptin, oral, FIG. 6, FIG. 7) was “elevation in GLP-1 levels in a dose-dependent manner”.

For `CN(C)C(=N)N=C(N)N` [metformin, reference compound], the “plasma GLP-1 levels” value (GLP-1; metformin in combination with 30 mg/kg sitagliptin, oral, FIG. 5) was “elevation in GLP-1 levels”.
